# Values quoted from earlier work, collected in US20230240985A1, “STABLE PHARMACEUTICAL COMPOSITION OF TOPIRAMATE” (ALKEM LABORATORIES LIMITED, priority 2022, published 2023).
compound,measurement,setting,value
"CC1(C)O[C@@H]2[C@@H](CO[C@@]3(COS(N)(=O)=O)OC(C)(C)O[C@@H]23)O1 [Topiramate, 2,3:4,5-Di-O-isopropylidine-β-D-fructopyranose sulfamate]",solubility in organic solvents,"acetone, chloroform, dimethylsulfoxide, and ethanol",freely soluble
same,solubility in alkaline solutions,"alkaline solutions containing sodium hydroxide or sodium phosphate, pH of 9 to 10",most soluble
same,stability in aqueous solution,aqueous solution,not stable
same,pH of saturated solution,saturated solution,6.3
